Experiments:
Assay type in all cases: functional
NCI-H2122 [1] = experiment: Antitumor activity against human NCI-H2122 cells harboring KRAS […] mutant xenografted in BALB/c nude mouse assessed as tumor volume at 15 mg/kg, po administered once daily and measured on day 27 in presence of adagrasib (reference value: 1559.54 +/- 225.48 mm3); conditions: time 27 day
NCI-H2122 [2] = experiment: Antitumor activity against human NCI-H2122 cells harboring KRAS […] mutant xenografted in BALB/c nude mouse assessed as tumor growth inhibition at 15 mg/kg, po administered twice daily and measured on day 27; conditions: NCI-H2122, 648 h, time 27 day, read-out: TGI
NCI-H2122 [3] = experiment: Antitumor activity against human NCI-H2122 cells harboring KRAS […] mutant xenografted in BALB/c nude mouse assessed as T/C ratio at 15 mg/kg, po administered once daily and measured on day 27 in presence of adagrasib relative to control; conditions: time 27 day
NCI-H2122 [4] = experiment: Antitumor activity against human NCI-H2122 cells harboring KRAS […] mutant xenografted in BALB/c nude mouse assessed as tumor volume at 15 mg/kg, po administered twice daily and measured on day 27 (reference value: 1559.54 +/- 225.48 mm3); conditions: time 27 day
NCI-H2122 [5] = experiment: Antitumor activity against human NCI-H2122 cells harboring KRAS […] mutant xenografted in BALB/c nude mouse assessed as T/C ratio at 15 mg/kg, po administered twice daily and measured on day 27 relative to control; conditions: time 27 day
NCI-H2122 [6] = experiment: Antitumor activity against human NCI-H2122 cells harboring KRAS […] mutant xenografted in BALB/c nude mouse assessed as tumor growth inhibition at 15 mg/kg, po administered once daily and measured on day 27 in presence of adagrasib; conditions: NCI-H2122, 648 h, time 27 day, read-out: TGI
NCI-H2122 [7] = experiment: Antitumor activity against human NCI-H2122 cells harboring KRAS […] mutant xenografted in BALB/c nude mouse assessed as tumor growth inhibition at 100 mg/kg, po administered once daily and measured on day 27; conditions: NCI-H2122, 648 h, time 27 day, read-out: TGI
NCI-H2122 [8] = experiment: Antitumor activity against human NCI-H2122 cells harboring KRAS […] mutant xenografted in BALB/c nude mouse assessed as tumor volume at 100 mg/kg, po administered once daily and measured on day 27 (reference value: 1559.54 +/- 225.48 mm3); conditions: time 27 day
NCI-H2122 [9] = experiment: Antitumor activity against human NCI-H2122 cells harboring KRAS […] mutant xenografted in BALB/c nude mouse assessed as T/C ratio at 100 mg/kg, po administered once daily and measured on day 27 relative to control; conditions: time 27 day
NCI-H2122 [10] = experiment: Antitumor activity against human NCI-H2122 cells harboring KRAS […] mutant xenografted in BALB/c nude mouse assessed as T/C ratio at 60 mg/kg, po administered once daily and measured on day 27 in presence of adagrasib relative to control; conditions: time 27 day
NCI-H2122 [11] = experiment: Antitumor activity against human NCI-H2122 cells harboring KRAS […] mutant xenografted in BALB/c nude mouse assessed as T/C ratio at 60 mg/kg, po administered once daily and measured on day 27 in presence of sotorasib relative to control; conditions: time 27 day
NCI-H2122 [12] = experiment: Antitumor activity against human NCI-H2122 cells harboring KRAS […] mutant xenografted in BALB/c nude mouse assessed as tumor volume at 60 mg/kg, po administered once daily and measured on day 27 in presence of adagrasib (reference value: 1559.54 +/- 225.48 mm3); conditions: time 27 day
NCI-H2122 [13] = experiment: Antitumor activity against human NCI-H2122 cells harboring KRAS […] mutant xenografted in BALB/c nude mouse assessed as tumor volume at 60 mg/kg, po administered twice daily and measured on day 27 (reference value: 1559.54 +/- 225.48 mm3); conditions: time 27 day
NCI-H2122 [14] = experiment: Antitumor activity against human NCI-H2122 cells harboring KRAS […] mutant xenografted in BALB/c nude mouse assessed as tumor growth inhibition at 60 mg/kg, po administered once daily and measured on day 27 in presence of sotorasib; conditions: NCI-H2122, 648 h, time 27 day, read-out: TGI
NCI-H2122 [15] = experiment: Antitumor activity against human NCI-H2122 cells harboring KRAS […] mutant xenografted in BALB/c nude mouse assessed as tumor growth inhibition at 60 mg/kg, po administered once daily and measured on day 27 in presence of adagrasib; conditions: NCI-H2122, 648 h, time 27 day, read-out: TGI
NCI-H2122 [16] = experiment: Antitumor activity against human NCI-H2122 cells harboring KRAS […] mutant xenografted in BALB/c nude mouse assessed as T/C ratio at 60 mg/kg, po administered twice daily and measured on day 27 relative to control; conditions: time 27 day
NCI-H2122 [17] = experiment: Antitumor activity against human NCI-H2122 cells harboring KRAS […] mutant xenografted in BALB/c nude mouse assessed as tumor growth inhibition at 60 mg/kg, po administered twice daily and measured on day 27; conditions: NCI-H2122, 648 h, time 27 day, read-out: TGI
NCI-H2122 [18] = experiment: Antitumor activity against human NCI-H2122 cells harboring KRAS […] mutant xenografted in BALB/c nude mouse assessed as tumor volume at 60 mg/kg, po administered once daily and measured on day 27 in presence of sotorasib (reference value: 1559.54 +/- 225.48 mm3); conditions: time 27 day

Question: How did the Activity (NCI-H2122 [1]) turn out when `Cn1cncc1[C@@]1(N)c2ccc(C#N)c(c2)COc2cccc(c2)-c2cc(C#N)nc3ccc1cc23` was run?
Answer: 187.07 mm3

Question: What about the inhibition in vivo at 15 mg/kg (NCI-H2122 [2]) of the same compound?
Answer: 31.9%

Question: What about the T/C (NCI-H2122 [3]) of the same compound?
Answer: 12%

Question: And the Activity (NCI-H2122 [4])?
Answer: 1062.47 mm3

Question: And the T/C (NCI-H2122 [5])?
Answer: 68.13%

Question: And the inhibition in vivo at 15 mg/kg (NCI-H2122 [6])?
Answer: 88%

Question: With `C=C(F)C(=O)N1CCN(c2nc(OC[C@@H]3CCCN3C)nc3c2CCN(c2cccc4cccc(Cl)c24)C3)C[C@@H]1CC#N` [ADAGRASIB] as the compound, how does the inhibition in vivo at 100 mg/kg (NCI-H2122 [7]) read?
Answer: 61.5%

Question: What about the Activity (NCI-H2122 [8]) of the same compound?
Answer: 600.26 mm3

Question: And the T/C (NCI-H2122 [9])?
Answer: 38.49%

Question: Which results are given for `C=CC(=O)N1CCN(c2nc(=O)n(-c3c(C)ccnc3C(C)C)c3nc(-c4c(O)cccc4F)c(F)cc23)[C@@H](C)C1` [SOTORASIB]?
Answer: inhibition in vivo at 100 mg/kg (NCI-H2122 [7]): 58.8%; T/C (NCI-H2122 [10]): 41.25%; Activity (NCI-H2122 [8]): 643.34 mm3

Question: How did the T/C (NCI-H2122 [10]) turn out when `Cn1cncc1[C@@](N)(c1ccc(Cl)cc1)c1ccc2c(c1)c(-c1cccc(Cl)c1)cc(=O)n2C` [TIPIFARNIB] was run?
Answer: 11.38%

Question: And the T/C (NCI-H2122 [11])?
Answer: 14.99%

Question: And the Activity (NCI-H2122 [12])?
Answer: 177.5 mm3

Question: What about the Activity (NCI-H2122 [13]) of the same compound?
Answer: 1000.38 mm3

Question: What about the inhibition in vivo at 60 mg/kg (NCI-H2122 [14]) of the same compound?
Answer: 85%

Question: What about the inhibition in vivo at 60 mg/kg (NCI-H2122 [15]) of the same compound?
Answer: 88.6%

Question: What about the T/C (NCI-H2122 [16]) of the same compound?
Answer: 64.15%

Question: What about the inhibition in vivo at 60 mg/kg (NCI-H2122 [17]) of the same compound?
Answer: 35.9%

Question: What about the Activity (NCI-H2122 [18]) of the same compound?
Answer: 233.84 mm3

Source: ChEMBL document CHEMBL6134875, “Farnesyl Transferase Inhibitors as a Novel Strategy for Targeting KRAS-Dependent Cancers” (2025)
